Reference: ChEMBL document CHEMBL5375989, “Pioneering 4,11-Dioxo-4,11-dihydro-1H-anthra[2,3-d]imidazol-3-ium Compounds as Promising Survivin Inhibitors by Targeting ILF3/NF110 for Cancer Therapy” (J Med Chem, 2023)
pIC50: −log10 of the molar value.

Tests used:
[1] = Antiproliferative activity against mouse L929 cells assessed as inhibition of cell growth measured after 48 hrs by MTT assay; type: toxicity, cell-based; conditions: mouse, L929 cells
A549 = assay: cells; conditions: Homo sapiens, A549, 48 h
Description: Antiproliferative activity against human A549 cells assessed as inhibition of cell growth measured after 48 hrs by MTT assay

TE-1 = assay: cells; conditions: Homo sapiens, TE-1, 48 h
Description: Antiproliferative activity against human TE-1 cells assessed as inhibition of cell growth measured after 48 hrs by MTT assay

5637 = assay: cells; conditions: Homo sapiens, 5637, 48 h
Description: Antiproliferative activity against human 5637 cells assessed as inhibition of cell growth measured after 48 hrs by MTT assay

[2] = Selectivity index, ratio of IC50 for mouse L929 cells to IC50 for human A549 cells; type: toxicity; conditions: L929 cells and A549 cells, read-out: Ratio IC50

C[n+]1cn(Cc2ccccc2F)c2c1C(=O)c1cc3ccccc3cc1C2=O
IC50 at 48 h [1]: 17700 nM
pIC50 (A549): 6.42
pIC50 (TE-1): 6.72
pIC50 5637: 6.33

O=C1c2ccccc2C(=O)c2c1n(-c1ccccc1)c[n+]2-c1ccccc1
IC50 at 48 h [1]: 66900 nM
selectivity ratio [2]: 0.87
pIC50 (A549): 4.12

Cc1n(CC(C)C)c2c([n+]1C)C(=O)c1cc3ccccc3cc1C2=O
IC50 at 48 h [1]: 15400 nM
pIC50 (A549): 7.22
pIC50 (TE-1): 7.10
pIC50 5637: 6.39

Cn1c[n+](C)c2c(O)c3c(c(O)c21)C1C=CC3C1 (configuration not stated)
IC50 at 48 h [1]: 86000 nM
selectivity ratio [2]: 2.7
pIC50 (A549): 4.50

Cn1c[n+](C)c2c1C(=O)c1cccc([N+](=O)[O-])c1C2=O
IC50 at 48 h [1]: 17500 nM
selectivity ratio [2]: 438
pIC50 (A549): 7.40

CCn1c[n+](CC)c2c(OC)ccc(OC)c21
IC50 at 48 h [1]: 95100 nM
selectivity ratio [2]: 7
pIC50 (A549): 4.87

Cc1n(Cc2ccccc2F)c2c([n+]1C)C(=O)c1cc3ccccc3cc1C2=O
IC50 at 48 h [1]: 12600 nM
pIC50 (A549): 6.34
pIC50 (TE-1): 6.26
pIC50 5637: 6.28

CC(C)n1c[n+](C)c2c1C(=O)c1cc3ccccc3cc1C2=O
IC50 at 48 h [1]: 84000 nM
pIC50 (A549): 6.35
pIC50 (TE-1): 6.38
pIC50 5637: 6.12

CC(C)CCn1c[n+](C)c2c1C(=O)c1cc3ccccc3cc1C2=O
IC50 at 48 h [1]: > 16400 nM
pIC50 (A549): 5.03
pIC50 (TE-1): 6.04
pIC50 5637: 5.75

CC(C)=CCn1c[n+](C)c2c1C(=O)c1cc3ccccc3cc1C2=O
IC50 at 48 h [1]: 58700 nM
pIC50 (A549): 5.74
pIC50 (TE-1): 4.66
pIC50 5637: 5.95

CC(C)Cn1c[n+](C)c2c1C(=O)c1cc3ccccc3cc1C2=O
IC50 at 48 h [1]: 87400 nM
pIC50 (A549): 5.73
pIC50 (TE-1): 6.11
pIC50 5637: 6.12

C[n+]1cn(Cc2ccc(F)cc2)c2c1C(=O)c1cc3ccccc3cc1C2=O
IC50 at 48 h [1]: 41100 nM
pIC50 (A549): 6.15
pIC50 (TE-1): 6.89
pIC50 5637: 6.28

CCc1n(C)c2c([n+]1C)C(=O)c1cc3ccccc3cc1C2=O
IC50 at 48 h [1]: 14600 nM
selectivity ratio [2]: 66
pIC50 (A549): 6.66

CCCCn1c[n+](CCCC)c2c1C(=O)c1ccccc1C2=O
IC50 at 48 h [1]: 6000 nM
selectivity ratio [2]: 11.8
pIC50 (A549): 6.29

COCCOCCn1c[n+](C)c2c1C(=O)c1cc3ccccc3cc1C2=O
IC50 at 48 h [1]: > 100000 nM
pIC50 (A549): 6.68
pIC50 (TE-1): 7.15
pIC50 5637: 6.74

COCCn1c2c([n+](C)c1C)C(=O)c1cc3ccccc3cc1C2=O
IC50 at 48 h [1]: 11000 nM
pIC50 (A549): 6.64
pIC50 (TE-1): 7.05
pIC50 5637: 7.15

CC1=C(C)C(=O)c2c(n(C)c[n+]2C)C1=O
IC50 at 48 h [1]: 119000 nM
selectivity ratio [2]: 3.7
pIC50 (A549): 4.49

CCCCn1c2c([n+](C)c1C)C(=O)c1cc3ccccc3cc1C2=O
IC50 at 48 h [1]: 13600 nM
pIC50 (A549): 7.05
pIC50 (TE-1): 7.05
pIC50 5637: 6.48

CCn1c2c([n+](CC)c1C)C(=O)c1cc3ccccc3cc1C2=O
IC50 at 48 h [1]: 33800 nM
pIC50 (A549): 7.15
pIC50 (TE-1): 6.38
pIC50 5637: 6.06

Cn1c2c([n+](C)c1C1CC1)C(=O)c1cc3ccccc3cc1C2=O
IC50 at 48 h [1]: 15400 nM
selectivity ratio [2]: 171
pIC50 (A549): 7.10

CCC(C)Cn1c[n+](C)c2c1C(=O)c1cc3ccccc3cc1C2=O (configuration not stated)
IC50 at 48 h [1]: 83900 nM
pIC50 (A549): 5.08
pIC50 (TE-1): 6.15
pIC50 5637: 5.82

Cc1n(Cc2cccc(F)c2)c2c([n+]1C)C(=O)c1cc3ccccc3cc1C2=O
IC50 at 48 h [1]: 45900 nM
pIC50 (A549): 6.41
pIC50 (TE-1): 6.80
pIC50 5637: 6.05

Cc1n(C(C)C)c2c([n+]1C)C(=O)c1cc3ccccc3cc1C2=O
IC50 at 48 h [1]: 17900 nM
pIC50 (A549): 7.05
pIC50 (TE-1): 6.82
pIC50 5637: 7.22

CCn1c[n+](C)c2c1C(=O)c1cc3ccccc3cc1C2=O
IC50 at 48 h [1]: 49300 nM
pIC50 (A549): 6.62
pIC50 (TE-1): 7.10
pIC50 5637: 7.00

CCC(C)Cn1c2c([n+](C)c1C)C(=O)c1cc3ccccc3cc1C2=O (configuration not stated)
IC50 at 48 h [1]: 43500 nM
pIC50 (A549): 6.43
pIC50 (TE-1): 6.17
pIC50 5637: 5.87

Cc1n(Cc2ccc(F)cc2)c2c([n+]1C)C(=O)c1cc3ccccc3cc1C2=O
IC50 at 48 h [1]: 76800 nM
pIC50 (A549): 6.19
pIC50 (TE-1): 6.60
pIC50 5637: 5.87

Cc1n(C)c2c([n+]1C)C(=O)c1ccccc1C2=O
IC50 at 48 h [1]: 2200 nM
selectivity ratio [2]: 24
pIC50 (A549): 7.05

CCC(C)n1c[n+](C)c2c1C(=O)c1cc3ccccc3cc1C2=O (configuration not stated)
IC50 at 48 h [1]: > 100000 nM
pIC50 (A549): 5.25
pIC50 (TE-1): 5.63
pIC50 5637: 5.56

CCc1n(C)c2c([n+]1C)C(=O)c1ccccc1C2=O
IC50 at 48 h [1]: 5600 nM
selectivity ratio [2]: 35
pIC50 (A549): 6.80

C[n+]1cn(Cc2cccc(F)c2)c2c1C(=O)c1cc3ccccc3cc1C2=O
IC50 at 48 h [1]: 22800 nM
pIC50 (A549): 6.04
pIC50 (TE-1): 6.57
pIC50 5637: 6.26

Cc1n(Cc2ccccc2)c2c([n+]1C)C(=O)c1cc3ccccc3cc1C2=O
IC50 at 48 h [1]: 30600 nM
pIC50 (A549): 6.06
pIC50 (TE-1): 6.28
pIC50 5637: 6.11

O=C1c2ccccc2C(=O)c2c1n(Cc1ccccc1)c[n+]2Cc1ccccc1
IC50 at 48 h [1]: 39000 nM
selectivity ratio [2]: 47.6
pIC50 (A549): 6.09

CCCn1c[n+](CCC)c2c1C(=O)c1ccccc1C2=O
IC50 at 48 h [1]: 9800 nM
selectivity ratio [2]: 15.1
pIC50 (A549): 6.19

COCCn1c[n+](CCOC)c2c1C(=O)c1ccccc1C2=O
IC50 at 48 h [1]: 9900 nM
selectivity ratio [2]: 16.2
pIC50 (A549): 6.21

CCn1c2c([n+](C)c1C)C(=O)c1cc3ccccc3cc1C2=O
IC50 at 48 h [1]: 23300 nM
pIC50 (A549): 6.68
pIC50 (TE-1): 7.10
pIC50 5637: 6.34

CC(C)=CCn1c2c([n+](C)c1C)C(=O)c1cc3ccccc3cc1C2=O
IC50 at 48 h [1]: 5520 nM
pIC50 (A549): 7.22
pIC50 (TE-1): 7.15
pIC50 5637: 6.40

Cc1n(CC2OCCO2)c2c([n+]1C)C(=O)c1cc3ccccc3cc1C2=O
IC50 at 48 h [1]: 79900 nM
pIC50 (A549): 6.49
pIC50 (TE-1): 6.64
pIC50 5637: 5.78

C#CCn1c2c([n+](C)c1C)C(=O)c1cc3ccccc3cc1C2=O
IC50 at 48 h [1]: 23800 nM
pIC50 (A549): 6.60
pIC50 (TE-1): 6.41
pIC50 5637: 5.77

Cc1n(CC#N)c2c([n+]1C)C(=O)c1cc3ccccc3cc1C2=O
IC50 at 48 h [1]: 9570 nM
pIC50 (A549): 6.34
pIC50 (TE-1): 6.17
pIC50 5637: 6.14

C[n+]1cn(Cc2ccccc2)c2c1C(=O)c1cc3ccccc3cc1C2=O
IC50 at 48 h [1]: 37100 nM
pIC50 (A549): 6.31
pIC50 (TE-1): 6.96
pIC50 5637: 6.39

CCn1c[n+](CC)c2c1C(=O)c1cc3ccccc3cc1C2=O
IC50 at 48 h [1]: 63900 nM
pIC50 (A549): 6.59
pIC50 (TE-1): 6.74
pIC50 5637: 6.28

COCC[n+]1c2c(n(Cc3cnccn3)c1C)C(=O)c1cc3ccccc3cc1C2=O
IC50 at 48 h [1]: 141000 nM
pIC50 (A549): 5.35
pIC50 (TE-1): 6.04
pIC50 5637: 5.98

COc1ccc(Cn2c[n+](C)c3c2C(=O)c2cc4ccccc4cc2C3=O)cc1
IC50 at 48 h [1]: 64400 nM
pIC50 (A549): 6.07
pIC50 (TE-1): 7.10
pIC50 5637: 6.10

CCCn1c2c([n+](C)c1C)C(=O)c1cc3ccccc3cc1C2=O
IC50 at 48 h [1]: 22100 nM
pIC50 (A549): 5.91
pIC50 (TE-1): 6.42
pIC50 5637: 6.24

CCCCn1c[n+](C)c2c1C(=O)c1cc3ccccc3cc1C2=O
IC50 at 48 h [1]: 65100 nM
pIC50 (A549): 6.17
pIC50 (TE-1): 4.23
pIC50 5637: 6.23
